The values that follow come from publication PMC7493219 (Journal of Crohn's & Colitis, 2020).

In series [1] the target is human recombinant TYK2 (Homo sapiens, UniProt P29597). The series can be described thus: LanthaScreen kinase assay. It is filed as biochemical. (TR-FRET usually uses a lanthanide donor and a delayed reading to cut background.)
Series [2] relates to moderately to severely active UC. The series can be described thus: Phase 1b study, efficacy assessments. The class given is in vivo, human. The following applies: after the 28-day treatment, all doses.
In series [3] the test system is pSTAT3 in colonic mucosa. The series can be described thus: Target engagement in the oxazolone colitis model. It is filed as in vivo, Balb/C mice. The following applies: oral 30 mg/kg BID; for T cell infiltration into the colonic mucosa: oxazolone-treated mice.
Series [4] concerns GM-CSF-induced pSTAT5 in THP-1 cells. The series can be described thus: THP-1 GM-CSF/pSTAT5 assay. Particulars: Homo sapiens, THP-1, read-out: Mean ± SD inhibitory potency [pIC50], GM-CSF/pSTAT5 (converted). It is filed as cell-based.
In series [5] the test system is IL-13-potentiated IL-8 production in HT-29 cells. The series can be described thus: HT-29 IL-13/IL-8 assay. It is filed as cell-based. The following applies: Homo sapiens, HT-29, read-out: Mean ± SD inhibitory potency [pIC50], IL-13/IL-8 (converted).
Series [6] concerns IL-6-induced pSTAT3 in THP-1 cells. The series can be described thus: THP-1 IL-6/pSTAT3 assay. It is filed as cell-based. Particulars: Homo sapiens, THP-1, read-out: Mean ± SD inhibitory potency [pIC50], IL-6/pSTAT3 (converted).
In series [7] the test system is splenic NK, T and B cells. The series can be described thus: Splenocyte studies. Particulars: 3 days. The class given is in vivo, Balb/C mice.
The subject of series [8] is oxazolone-induced colitis. The series can be described thus: Oxazolone-induced colitis model. Particulars: for effects of oxazolone (DAI and subscores): highest dose tested, 30 mg/kg. The class given is in vivo, Balb/C mice.
The test system of series [9] is GM-CSF-induced pSTAT5 in human whole blood. The series can be described thus: Human whole blood GM-CSF/pSTAT5 assay. The class given is cell-based. Particulars: read-out: Mean ± SD inhibitory potency [pIC50], GM-CSF/pSTAT5 (converted).
Series [10] is described as follows: Phase 1b study, safety and tolerability in UC patients. Particulars: 20, 80, 270 mg QD 28 days. It is filed as in vivo, human.
Series [11] has as its system IL-4-induced pSTAT6 in THP-1 cells. The series can be described thus: THP-1 IL-4/pSTAT6 assay. The following applies: Homo sapiens, THP-1, read-out: Mean ± SD inhibitory potency [pIC50], IL-4/pSTAT6 (converted). The class given is cell-based.
Series [12] is described as follows: clinical. Particulars: human, in vivo.
The target of series [13] is mouse recombinant JAK1 (Mus musculus, UniProt P52332). The series can be described thus: LanthaScreen kinase assay. The class given is biochemical.
Series [14] can be described thus: FTIH SAD/MAD study, safety and tolerability in healthy subjects. It is filed as in vivo, human. Particulars: single dose up to 1000 mg, daily doses up to 300 mg for 14 days.
Series [15] concerns IL-6-induced pSTAT1 in Balb/C mouse primary colonic epithelial cells. The series can be described thus: Mouse colonic epithelial cell IL-6/pSTAT1 assay. The class given is cell-based. Particulars: from Table 1 pIC50.
Series [16] can be described thus: Oral pharmacokinetics in mice. Particulars: for concentration at 24 h / Cmax: male, Balb/C, mouse, in vivo, 10 mg/kg; for Cmax: po.
For series [17], the system named is IL-13-induced pSTAT6 in HT-29 cells. The series can be described thus: HT-29 IL-13/pSTAT6 assay. The class given is cell-based. Particulars: Homo sapiens, HT-29, read-out: Mean ± SD inhibitory potency [pIC50], IL-13/pSTAT6 (converted).

Molecules are shown by their SMILES. Like-named read-outs stand apart in the source and are kept apart here.

Chain of human recombinant TYK2 (P29597 whole entry): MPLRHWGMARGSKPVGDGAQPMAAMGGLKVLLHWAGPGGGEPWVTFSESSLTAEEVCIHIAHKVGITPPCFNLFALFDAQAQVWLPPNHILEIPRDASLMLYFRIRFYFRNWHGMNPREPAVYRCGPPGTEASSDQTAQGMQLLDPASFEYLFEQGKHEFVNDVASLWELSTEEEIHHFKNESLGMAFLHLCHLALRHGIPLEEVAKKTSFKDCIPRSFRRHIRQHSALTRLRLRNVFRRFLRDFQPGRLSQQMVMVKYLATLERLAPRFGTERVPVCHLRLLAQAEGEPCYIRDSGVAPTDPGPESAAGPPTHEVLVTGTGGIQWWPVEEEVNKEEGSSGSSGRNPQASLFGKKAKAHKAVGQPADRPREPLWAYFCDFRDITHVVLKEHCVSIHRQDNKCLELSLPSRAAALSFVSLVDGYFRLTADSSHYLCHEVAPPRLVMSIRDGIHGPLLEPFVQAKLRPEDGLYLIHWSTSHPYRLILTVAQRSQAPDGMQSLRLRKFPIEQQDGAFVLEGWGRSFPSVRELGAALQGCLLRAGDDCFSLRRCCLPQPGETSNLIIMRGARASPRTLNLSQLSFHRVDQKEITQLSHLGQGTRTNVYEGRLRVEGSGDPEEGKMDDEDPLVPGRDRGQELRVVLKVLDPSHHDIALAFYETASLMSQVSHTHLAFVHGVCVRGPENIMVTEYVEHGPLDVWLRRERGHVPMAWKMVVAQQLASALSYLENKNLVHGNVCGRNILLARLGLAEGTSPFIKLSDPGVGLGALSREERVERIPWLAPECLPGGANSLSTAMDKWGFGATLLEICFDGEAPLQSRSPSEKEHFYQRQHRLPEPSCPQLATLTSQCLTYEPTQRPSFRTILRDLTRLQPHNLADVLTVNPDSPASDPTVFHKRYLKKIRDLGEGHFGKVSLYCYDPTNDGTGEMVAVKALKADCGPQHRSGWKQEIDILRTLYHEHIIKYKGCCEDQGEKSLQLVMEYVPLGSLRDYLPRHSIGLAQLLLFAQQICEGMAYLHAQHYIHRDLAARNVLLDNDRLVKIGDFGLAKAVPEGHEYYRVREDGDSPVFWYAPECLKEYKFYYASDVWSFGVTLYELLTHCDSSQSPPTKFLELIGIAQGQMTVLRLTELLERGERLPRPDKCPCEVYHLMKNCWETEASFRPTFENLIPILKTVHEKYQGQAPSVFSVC
Chain of mouse recombinant JAK1 (P52332 whole entry): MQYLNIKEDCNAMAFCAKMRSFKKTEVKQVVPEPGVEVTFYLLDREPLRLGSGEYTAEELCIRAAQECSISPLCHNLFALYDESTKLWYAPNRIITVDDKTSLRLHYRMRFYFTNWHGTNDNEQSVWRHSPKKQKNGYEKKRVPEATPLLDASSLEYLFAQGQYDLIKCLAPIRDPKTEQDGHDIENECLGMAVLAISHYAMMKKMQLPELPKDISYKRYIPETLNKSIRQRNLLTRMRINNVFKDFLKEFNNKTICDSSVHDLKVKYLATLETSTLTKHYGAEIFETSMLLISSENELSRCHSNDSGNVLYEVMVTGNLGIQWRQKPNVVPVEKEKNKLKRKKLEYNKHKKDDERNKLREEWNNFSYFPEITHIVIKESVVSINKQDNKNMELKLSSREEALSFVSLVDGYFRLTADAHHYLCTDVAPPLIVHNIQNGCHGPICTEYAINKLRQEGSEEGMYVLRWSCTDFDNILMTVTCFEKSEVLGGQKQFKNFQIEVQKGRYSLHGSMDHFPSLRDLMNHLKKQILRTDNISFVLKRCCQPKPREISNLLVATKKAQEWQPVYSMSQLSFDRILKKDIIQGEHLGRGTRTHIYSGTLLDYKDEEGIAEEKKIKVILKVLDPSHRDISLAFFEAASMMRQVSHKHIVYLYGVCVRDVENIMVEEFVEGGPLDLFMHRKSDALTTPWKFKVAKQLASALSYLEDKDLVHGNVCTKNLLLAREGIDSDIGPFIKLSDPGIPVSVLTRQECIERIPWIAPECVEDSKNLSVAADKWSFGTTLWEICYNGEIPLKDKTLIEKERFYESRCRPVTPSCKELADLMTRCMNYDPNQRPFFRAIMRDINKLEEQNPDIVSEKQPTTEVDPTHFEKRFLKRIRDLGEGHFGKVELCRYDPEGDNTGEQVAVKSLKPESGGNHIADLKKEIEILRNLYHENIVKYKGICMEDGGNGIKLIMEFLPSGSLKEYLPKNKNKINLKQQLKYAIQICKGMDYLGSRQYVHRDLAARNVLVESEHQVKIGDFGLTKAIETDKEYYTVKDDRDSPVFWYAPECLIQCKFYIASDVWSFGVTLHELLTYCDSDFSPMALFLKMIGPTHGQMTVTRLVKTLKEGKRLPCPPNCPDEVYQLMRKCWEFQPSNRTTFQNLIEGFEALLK

What is called Tmax is the time from dosing to the highest level. As usually defined, the Ki is the equilibrium dissociation constant of an inhibitor or competing ligand from its target. Usually Cmax stands for the peak of the concentration-time curve. On to `Cc1cc(Nc2cc3ncccc3c(N[C@@H]3C[C@H]4CC[C@@H](C3)N4CCC#N)n2)n[nH]1` [TD-1473], for which the “stronger potency for TYK2 compared with tofacitinib” value in series [1] is listed as “approximately 40 fold”. Also, in [2], the clinical remission result is on record as “No patient achieved clinical remission”. In addition, in [3] (30 mg/kg), the “T cell infiltration into the colonic mucosa” value is “preventing T cell infiltration”. The “pSTAT3 levels in colonic mucosa of oxazolone-treated mice vs vehicle” value in series [3] (30 mg/kg) is “significantly inhibited”. Also, the IC50 in series [4] is 100 nM; in series [5], 79.4 nM; in [6] it was 50.1 nM; in [9] it was 200 nM; in [11], 31.6 nM; in series [17], 79.4 nM. For the same compound, the “colonic tissue concentration, geometric mean [95% CI]” value (20 mg QD, day 28) was 4090 [2270–7380] pg/g. For the same compound, the “geometric mean colonic tissue concentration [average of sigmoid and rectum]” value runs as follows: (20 mg QD, day 28) 4090 pg/mL; (80 mg QD, day 28) 65 300 pg/mL; (270 mg QD, day 28) 43 500 pg/mL. For the same compound, under “20 mg, day 14”, the “patients with plasma trough concentration BLQ” value is 4/9. Besides, the “geometric mean trough concentration as % of Cmax” value by setting is: (80 mg, day 14) 3.57%; (270 mg, day 14) 5.79%. Further, in series [7] (oral 1, 10 and 100 mg/kg BID), the “numbers of splenic NK, B or T cells vs vehicle” value is on record as “did not affect”. In addition, in series [8], the “effects of oxazolone (DAI and subscores)” value is recorded as “did not significantly attenuate”. Further, the “oxazolone-induced elevated DAI, reduction in body weight and stool consistency, increase in stool blood content” value in series [8] (oral 0.3–10 mg/kg BID) is listed as “attenuated”. Also, the “TEAE incidence, TD-1473 treatment arms overall” value in [10] amounted to 38.7%. Further, the “laboratory parameters (haematological, renal, hepatic, creatinine phosphokinase, lipid)” value in series [10] is recorded as “did not adversely affect”. The tolerability entry in series [10] and in [14] was “generally well tolerated” in each case. For the same compound, the Tmax in [12] was around 1 h. Further, the Ki in series [13] is 0.0631 nM. In addition, the “mouse colonic epithelial IL-6/pSTAT1 IC50” value in [15] was determined as 0.020 µg/g. The concentration at 24 h in series [16] is below 0.25 nM. Further, the peak concentration (Cmax) in series [16] (colon, 10 mg/kg oral) was 3690 ng/g; in series [16] (plasma, 10 mg/kg oral) it was 1.4 ng/mL.
With `C[C@@H]1CCN(C(=O)CC#N)C[C@@H]1N(C)c1ncnc2[nH]ccc12` [tofacitinib, reference compound], the “T cell infiltration into the colonic mucosa” value in [3] is “preventing T cell infiltration”. In [3] (30 mg/kg), the “pSTAT3 levels in colonic mucosa of oxazolone-treated mice vs vehicle” value is recorded as “significantly inhibited”. The “splenic T and B cell numbers” value in series [7] (oral 10, 15 and 30 mg/kg TID) is reported as “did not affect”. The “effects of oxazolone (DAI and subscores)” value in [8] was “did not significantly attenuate”. In series [8] (oral 10 and 15 mg/kg TID), the “oxazolone-induced elevated DAI, reduction in body weight and stool consistency, increase in stool blood content” value is “attenuated”. For the same compound, the “colonic level 24 h postdose (BLQ)” value in [16] (10 mg/kg oral) is below 0.00025 µM. This compound also displayed a concentration at 24 h in [16] below 0.25 nM. The Cmax turned out to be 2570 ng/mL in series [16] (colon, 10 mg/kg oral) and 193 ng/mL in series [16] (plasma, 10 mg/kg oral).
